Results as given in article PMC6767234, “Effects of the Ethanol Extract of Dipterocarpus alatus Leaf on the Unpredictable Chronic Mild Stress-Induced Depression in ICR Mice and Its Possible Mechanism of Action” (Molecules, 2019).
Where a name gives a salt, the structure may show the parent alone.

How the values were obtained:
mice = settings: cited from earlier work
UCMS = system: UCMS; set-up: method as in PMID 28732760; settings: cited from earlier work
ICR mice = system: ICR mice; set-up: method as in PMID 31394019; settings: oral, 5 mg/kg for 7 days, vs vehicle-administered control group; cited from earlier work
UCMS mice [1] = experiment: Sucrose preference test (anhedonia) in UCMS mice; assay type: in vivo, ICR mice; settings: IMP 20 mg/kg i.p. daily, 5th week, vs vehicle-treated UCMS group
Method: (§1) UCMS procedures were used to induce the depressive-like behaviors in mice as previously described by Mizuki et al., with minor modification. Briefly, in week 0, the animals were first trained to consume a 2% sucrose solution for a 48-h period in their home cages with no food or water. After this training, the animals were deprived of water and food for 18 h, and then sucrose solution was given for 1 h per day for 5 consecutive days in order to group the mice and determine the baseline sucrose consumption. The animals were randomly divided into 5 groups: a non-stressed control group and 4 other groups subjected to UCMS for 5 weeks. The UCMS procedures consisted of a variety of unpredictable mild stressors, including two periods of cage tilting at 45° (12 h), two periods of restricted access to food (5 micropellets, 1 h), two periods of exposure to an empty bottle (3 h), one 21 h-period of a wet cage (200 mL of water in 100 g of sawdust bedding), two periods of light exposure (36 h), two periods of intermittent sound (a cat singing sound) (3 and 5 h), two periods of paired caging (2 h), and food and water deprivation for 18 h before the measurement of 2% sucrose solution consumption. […]
The sucrose preference test was used to assess the anhedonic-like behavior. […] The amounts of 2% (w/v) sucrose solution were recorded. […]

BDNF mRNA = experiment: QPCR of BDNF mRNA in frontal cortex and hippocampus of UCMS mice; assay type: in vivo, ICR mice; settings: LE 100 and 500 mg/kg p.o., IMP 20 mg/kg i.p.
Method: (§2) UCMS procedures were used to induce the depressive-like behaviors in mice as previously described by Mizuki et al., with minor modification. Briefly, in week 0, the animals were first trained to consume a 2% sucrose solution for a 48-h period in their home cages with no food or water. After this training, the animals were deprived of water and food for 18 h, and then sucrose solution was given for 1 h per day for 5 consecutive days in order to group the mice and determine the baseline sucrose consumption. The animals were randomly divided into 5 groups: a non-stressed control group and 4 other groups subjected to UCMS for 5 weeks. […]
(§3) Mouse serum/glucocorticoid-regulated kinase 1 (SGK1), cyclic AMP response element binding protein (CREB), brain-derived neurotrophic factor (BDNF), mRNAs expression in hippocampus and frontal cortex were quantified by real time PCR. […] Fold difference relative expressions were calculated.

UCMS mice [2] = experiment: Tail suspension test (TST) in UCMS mice; assay type: in vivo, ICR mice; settings: LE 100 and 500 mg/kg p.o. (dose-dependent), IMP 20 mg/kg i.p., vs vehicle-treated UCMS group
Method: as §2
Each mouse was suspended upside down in the tail suspension test box, which leads to characteristic behavior immobility. […] Immobility duration was recorded for the last 4 min, during a 6-min observation period. […]

UCMS mice [3] = experiment: Forced swimming test (FST) in UCMS mice; assay type: in vivo, ICR mice; settings: LE 100 and 500 mg/kg p.o. (dose-dependent), IMP 20 mg/kg i.p., vs vehicle-treated UCMS group
Method: as §1
Forced swimming test (FST) is one of the most commonly used animal models for assessing antidepressant-like behavior. […] The immobility time was recorded during 5 min.

SGK1 mRNA = experiment: QPCR of SGK1 mRNA in frontal cortex and hippocampus of UCMS mice; assay type: in vivo, ICR mice; settings: LE 100 and 500 mg/kg p.o. (dose-dependent), IMP 20 mg/kg i.p.
Method: as §2, §3

[4] = system: serum corticosterone (CORT); experiment: Serum corticosterone (CORT) ELISA in UCMS mice; assay type: in vivo, ICR mice; settings: imipramine 20 mg/kg/day, LE 100–500 mg/kg/day for 3 weeks, vs vehicle-treated UCMS group
Method: as §2
After completing the behavioral analysis, blood was collected via cardiac puncture under anesthesia with pentobarbital sodium as anesthetic drug (Nembutal®: 60 mg/kg i.p.; Ceva Sante Animale, Libourne, France). […] The absorbance was immediately determined at 450 nm.

UCMS mice [5] = experiment: Locomotor activity in the Y-maze task in UCMS mice; assay type: in vivo, ICR mice; settings: LE 100 and 500 mg/kg p.o., IMP 20 mg/kg i.p.
Method: as §2
In order to exclude false positive results from drug-induced hyperlocomotion in hopeless behavioral tests, locomotor activity was determined by evaluation of mice movement. […] One hour after drug administration, the mice were individually placed on one arm, and the total arm entries were recorded manually over 8 min-period for measuring the locomotion activity.

CREB mRNA = experiment: QPCR of CREB mRNA in frontal cortex and hippocampus of UCMS mice; assay type: in vivo, ICR mice; settings: LE 100 and 500 mg/kg p.o., IMP 20 mg/kg i.p.
Method: as §2, §3

recombinant human MAO-A = biological target: T1, recombinant human MAO-A (Homo sapiens, UniProt P21397); settings: read-out: Km for the oxidation of kynuramine by MAO-A; cited from earlier work
T1 sequence (P21397 1-527): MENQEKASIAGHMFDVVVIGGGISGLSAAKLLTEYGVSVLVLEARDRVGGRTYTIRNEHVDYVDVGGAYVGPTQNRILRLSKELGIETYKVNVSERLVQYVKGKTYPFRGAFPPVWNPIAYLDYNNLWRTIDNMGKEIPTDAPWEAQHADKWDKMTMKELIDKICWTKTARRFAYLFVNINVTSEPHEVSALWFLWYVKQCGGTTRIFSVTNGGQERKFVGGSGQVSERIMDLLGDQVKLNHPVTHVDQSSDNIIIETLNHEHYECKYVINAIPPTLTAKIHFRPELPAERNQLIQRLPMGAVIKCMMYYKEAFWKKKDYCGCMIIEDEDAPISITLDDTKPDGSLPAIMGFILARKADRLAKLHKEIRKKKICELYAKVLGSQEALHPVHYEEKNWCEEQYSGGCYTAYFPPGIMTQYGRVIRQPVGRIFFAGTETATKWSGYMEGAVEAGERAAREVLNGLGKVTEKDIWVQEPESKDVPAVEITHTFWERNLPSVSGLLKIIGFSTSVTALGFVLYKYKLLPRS

recombinant human MAO-B = biological target: T2, recombinant human MAO-B (Homo sapiens, UniProt P27338); settings: read-out: Km for the oxidation of kynuramine by MAO-B; cited from earlier work
T2 sequence (P27338 1-520): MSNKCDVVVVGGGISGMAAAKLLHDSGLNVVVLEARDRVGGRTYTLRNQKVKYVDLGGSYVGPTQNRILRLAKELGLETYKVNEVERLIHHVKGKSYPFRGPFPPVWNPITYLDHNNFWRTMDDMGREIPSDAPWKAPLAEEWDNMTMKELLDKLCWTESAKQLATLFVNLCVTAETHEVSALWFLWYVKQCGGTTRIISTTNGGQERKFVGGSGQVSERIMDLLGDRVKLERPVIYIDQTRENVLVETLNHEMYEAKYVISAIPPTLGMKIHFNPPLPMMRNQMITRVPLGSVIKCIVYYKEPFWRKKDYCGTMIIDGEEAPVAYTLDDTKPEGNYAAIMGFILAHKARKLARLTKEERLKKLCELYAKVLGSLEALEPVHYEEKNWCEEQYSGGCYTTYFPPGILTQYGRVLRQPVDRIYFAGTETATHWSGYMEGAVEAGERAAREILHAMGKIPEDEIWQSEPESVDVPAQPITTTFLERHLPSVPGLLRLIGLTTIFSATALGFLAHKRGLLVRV

O=c1c(O)c(-c2ccc(O)cc2)oc2cc(O)cc(O)c12 [Kaemferol]
immobility time in FST and TST (mice; stress-induced mice compared with unstressed mice): reducing the immobility time

C[C@@H]1O[C@@H](OC[C@H]2O[C@@H](Oc3c(-c4ccc(O)c(O)c4)oc4cc(O)cc(O)c4c3=O)[C@H](O)[C@@H](O)[C@@H]2O)[C@H](O)[C@H](O)[C@H]1O [Rutin, quercetin-3-rutinoside]
UCMS-induced behavioral deficits (UCMS): efficiently rescued the UCMS-induced behavioral deficits

COc1cc(/C=C/C(=O)O)ccc1O [ferulic acid]
immobility (ICR mice): significantly reduced immobility

CN(C)CCCN1c2ccccc2CCc2ccccc21 [imipramine, imipramine hydrochloride]
2% sucrose intake (UCMS mice [1]): significant increase | expression of BDNF mRNA (BDNF mRNA): normalized the down-regulated expression | immobility time in TST (UCMS mice [2]): significantly decreased the immobility time | immobility time in FST (UCMS mice [3]): significantly decreased the immobility time | mRNA expression of SGK1 (SGK1 mRNA): markedly decreased | UCMS-induced elevation in serum CORT levels [4]: significantly suppressed | locomotor activity (number of arm entries, Y-maze) (UCMS mice [5]): neither imipramine (IMP) nor the ethanol extract of D. alatus leaf improved the locomotor activity | expression of CREB mRNA (CREB mRNA): normalized the down-regulated expression

NCCC(=O)c1ccccc1N [kynuramine]
Km (recombinant human MAO-A): 16.1 µM | Km (recombinant human MAO-B): 22.7 µM

O=c1cc(-c2ccc(O)c(O)c2)oc2cc(O)cc(O)c12 [luteolin]
effect in FST and TST (mice; oral administration, 50 mg/kg): antidepressant effects
